According to patent US4870097A, “Pharmaceutical use of derivatives of tryptophan” (priority 1984, dated 1989):

What was measured:
[1] = system: analgesic activity of morphine; experiment: Tail Flick Test: increase in the analgesic effect of morphine; type: in vivo, rats; settings: for percentage variation in the latency of the pain sensation, 10' / percentage variation in the latency of the pain sensation, 20' / percentage variation in the latency of the pain sensation, 30' / percentage variation in the latency of the pain sensation, 45' / percentage variation in the latency of the pain sensation, 60' / percentage variation in the latency of the pain sensation, 90' / M(10'-90') average percentage variation: compound 10 mg/kg i.p. + morphine 2 mg/kg (row Morphine: alone); for percentage variation in the latency of the pain sensation, 10' / percentage variation in the latency of the pain sensation, 20' / percentage variation in the latency of the pain sensation, 30' / percentage variation in the latency of the pain sensation, 45' / percentage variation in the latency of the pain sensation, 60' / percentage variation in the latency of the pain sensation, 90': ± S.E.; for M(10'-90') average percentage variation: mean 10'-90'; for Potency ratio relative to morphine alone: rat, in vivo
Method: Increase in the analgesic effect of analgesic-narcotic drugs in rats in the Tail Flick Test
The method is that described by Harris et al. (J. Pharmacol. Exp. Ther. 143 (1964) 141-148).
Male rats are used which have a weight of about 150-200 g and which have not been fasting. A point is chosen on the tail and this is irradiated by a heat source (75° C.) and the time (in seconds) for which the animal remains without moving its tail is measured.
A maximum period of time under the heat source of 8 seconds is chosen after which the animal is, in any case, removed in order to avoid tissue damage. The measurement is effected before (controls) and after treatment with the drugs.
. The percentage variation is calculated for each individual animal by the following formula: [formula] The measurements are carried out 10, 20, 30, 45, 60 and 90 minutes after treatment with the analgesics.
The results obtained are given in Table 1 which records the groups treated and the doses administered, the
average percentage variations (calculated on groups of five animals) in […]

[2] = system: guinea pig gall bladder contracted with CCK-8; experiment: Anti-CCK activity on guinea pig gall bladders in vitro; type: biochemical; settings: CCK-8 10 ng/ml, concentration antagonising 50% of contracting effect
Method: A longitudinal strip of guinea pig gall bladder is placed in a bath of Krebs for isolated organs at a temperature of 32° C. and oxygenated continuously with an oxygen-CO2 mixture (95-5 V/V).
The […] contractions are detected by means of a force transducer and recorded.
The gall bladder is contracted with the use of a CCK-8 solution at a concentration of 10 ng/ml; the antagonistic activity of the compounds of the invention towards the contracting effect of the CCK is determined with the use of different concentrations, the ED50 value, that is the concentration of the compound in mcg/ml capable of antagonising 50% of the contracting effect of the CCK, being determined.
The results obtained are set out in the following table which gives the compounds tested and the ED50 values which are calculated by the method of regression on a test of at least three experiments for each compound studied.

[3] = system: tolerance induced by morphine; experiment: Antagonism to the development of tolerance to repeated administration of morphine HCl (tail flick); type: in vivo, rats
Method: Several of the compounds of the invention were examined to determine any capacity to antagonise the development of tolerance induced by morphine. Groups of six male rats having a weight of about 200-250 were used.
At intervals of 24 hours from the first treatment (time 0), each animal (except for the control group treated with a physiological solution) received 3 mg/kg of morphine hydrochloride i.p. together with 3 mg/kg i.p. of the compounds indicated (with the exception of the group treated solely with morphine).
The determination of the threshold for the pain stimulus was effected at 15°, 30', 45' and 60' intervals from the treatment by the "tail flick" test.

SMILES	percentage variation in the latency of the pain sensation, 10' [1]	percentage variation in the latency of the pain sensation, 20' [1]	percentage variation in the latency of the pain sensation, 30' [1]	percentage variation in the latency of the pain sensation, 45' [1]	percentage variation in the latency of the pain sensation, 60' [1]	percentage variation in the latency of the pain sensation, 90' [1]	M(10'-90') average percentage variation [1]	Potency ratio relative to morphine alone [1]	Anti CCK-8 activity, ED50 [2]	percentage variation in the latency time, day 0 ([3]; day 0, 3 mg/kg i.p. + morphine HCl 3 mg/kg i.p. (row Morphine: alone))	percentage variation in the latency time, day 1 ([3]; day 1, 3 mg/kg i.p. + morphine HCl 3 mg/kg i.p. (row Morphine: alone))	percentage variation in the latency time, day 2 ([3]; day 2, 3 mg/kg i.p. + morphine HCl 3 mg/kg i.p. (row Morphine: alone))	percentage variation in the latency time, day 3 ([3]; day 3, 3 mg/kg i.p. + morphine HCl 3 mg/kg i.p. (row Morphine: alone))	percentage variation in the latency time, day 4 ([3]; day 4, 3 mg/kg i.p. + morphine HCl 3 mg/kg i.p. (row Morphine: alone))	percentage variation in the latency time, day 5 ([3]; day 5, 3 mg/kg i.p. + morphine HCl 3 mg/kg i.p. (row Morphine: alone))	percentage variation in the latency time, day 6 ([3]; day 6, 3 mg/kg i.p. + morphine HCl 3 mg/kg i.p. (row Morphine: alone))	percentage variation in the latency time, day 7 ([3]; day 7, 3 mg/kg i.p. + morphine HCl 3 mg/kg i.p. (row Morphine: alone))	regression line % Effect versus Day ([3]; days 0-7, 3 mg/kg + morphine (row Morphine: alone))	day on which activity falls to 0 / inactive level is reached ([3]; from the straight lines of regression, groups C, D and E extrapolated)
O=C(N[C@@H](Cc1c[nH]c2ccccc12)C(=O)O)OCc1ccc(Br)cc1 [Compound 3]	70.7 ± 19.7%	90.3 ± 9.7%	74.7 ± 16.9%	86.2 ± 11.0%	100.0 ± 0.0%	53.7 ± 17.2%	79.3%	2.66	33.6 µg/mL	–	–	–	–	–	–	–	–	–	–
O=C(N[C@@H](Cc1c[nH]c2ccccc12)C(=O)O)OCc1ccc(I)cc1 [Compound 4]	62.8 ± 22.8%	76.9 ± 14.4%	85.3 ± 13.9%	56.4 ± 18.2%	48.1 ± 16.9%	19.4 ± 11.1%	58.2%	1.95	48.2 µg/mL	–	–	–	–	–	–	–	–	–	–
O=C(N[C@@H](Cc1c[nH]c2ccccc12)C(=O)O)OCc1cccc(Cl)c1 [Compound 5]	34.5 ± 13.3%	53.0 ± 24.8%	62.5 ± 16.6%	50.5 ± 17.6%	43.7 ± 10.1%	52.2 ± 22.2%	50.9%	1.71	23.2 µg/mL	–	–	–	–	–	–	–	–	–	–
O=C(N[C@@H](Cc1c[nH]c2ccccc12)C(=O)O)OCc1ccc(Cl)c(Cl)c1 [Compound 6]	68.6 ± 20.4%	78.0 ± 17.9%	80.4 ± 19.6%	84.5 ± 11.4%	76.3 ± 13.8%	71.9 ± 15.2%	78.6%	2.57	16.1 µg/mL	–	–	–	–	–	–	–	–	–	–
O=C(N[C@@H](Cc1c[nH]c2ccccc12)C(=O)O)OCc1ccc(C(F)(F)F)cc1 [Compound 7]	38.3 ± 13.7%	34.4 ± 5.7%	44.4 ± 14.8%	48.3 ± 14.6%	47.2 ± 16.9%	47.9 ± 15.4%	43.4%	1.45	108.7 µg/mL	–	–	–	–	–	–	–	–	–	–
Cc1ccc(COC(=O)N[C@@H](Cc2c[nH]c3ccccc23)C(=O)O)cc1 [Compound 8]	12.4 ± 4.9%	38.4 ± 22.2%	56.5 ± 20.3%	48.0 ± 26.1%	48.5 ± 21.5%	54.4 ± 24.7%	43.0%	1.44	114.3 µg/mL	–	–	–	–	–	–	–	–	–	–
CCc1ccc(COC(=O)N[C@@H](Cc2c[nH]c3ccccc23)C(=O)O)cc1 [Compound 9]	46.7 ± 14.7%	62.2 ± 16.5%	39.6 ± 15.7%	86.9 ± 8.0%	46.7 ± 20.4%	40.8 ± 22.4%	53.8%	1.80	125.4 µg/mL	–	–	–	–	–	–	–	–	–	–
Cc1ccc(COC(=O)N[C@@H](Cc2c[nH]c3ccccc23)C(=O)O)cc1Cl [Compound 10]	51.5 ± 48.9%	58.3 ± 16.5%	66.0 ± 14.1%	56.9 ± 17.0%	56.2 ± 23.5%	34.2 ± 8.4%	55.5%	1.86	88.5 µg/mL	–	–	–	–	–	–	–	–	–	–
CN1CC[C@]23c4c5ccc(O)c4O[C@H]2[C@@H](O)C=C[C@H]3[C@H]1C5 [Morphine, morphine, reference compound]	10.8 ± 4.0%	54.2 ± 17.0%	46.6 ± 21.0%	41.7 ± 16.0%	32.0 ± 17.0%	-6.4 ± 10.0%	29.8%	–	–	35.83%	37.43%	30.33%	16.06%	22.46%	9.63%	7.28%	1.95%	% Effect = - 5.34 Day + 38.72	sixth
